Laboratory results published in patent US7138361B2, “Herbicidal heterocycles” (E. I. du Pont de Nemours and Company, priority 2000, dated 2006).

Columns and labels:
Experiment in all cases: Test D greenhouse paddy-water test in rice
Format in all cases: in vivo
Conditions in all cases: 21 days, 0-100 scale
[1] = system: transplanted rice seedlings (Oryza sativa cv. 'Japonica—M202'; Ost)
From the text: (§1) Four plastic pots (ca. 16-cm diameter) per rate were partially filled with sterilized Tama silt loam soil comprised of a 35:50:15 ratio of sand, silt and clay and 2.6% organic matter. Separate plantings for each of the four pots were as follows. Seeds from the U.S. of Heteranthera limosa (Hl), Monochoria vaginalis (Mv), Ammania auriculata (Aa), and Sphenoclea zeylanica (Sz) were planted into one 16-cm pot for each rate. Seeds from the U.S. of Cyperus iria (Ci), Leptochloa fascicularis (Li), one stand of 9 or 10 direct-seeded rice seedlings (Oryza saliva cv. ‘Japonica—M202’; Oss), and one stand of 6 transplanted rice seedlings (Oryza sativa cv. ‘Japonica—M202’; Ost) were planted into one 16-cm pot for each rate. Seeds from the U.S. of Cyperus difformis (Cd), Alisma plantago-aquatica (Ap), and Scirpus mucronatus (Sm) were planted into one 16-cm pot for each rate. Seeds from the U.S. of Echinochloa crus-galli (Ecg), Echinochloa oryzicola (Eor), Echinochloa oryzoides (Eoz) and Echinochloa colonum (Ecc) were planted into one 16-cm pot for each rate. Plantings were sequential so that crop and weed species were at the 2.0 to 2.5-leaf stage at time of treatment.
(§2) Potted plants were grown in a greenhouse with day/night temperature settings of 29.5/26.7° C., and supplemental balanced lighting was provided to maintain a 16-hour photoperiod. Test pots were maintained in the greenhouse until test completion.
(§3) Chemical treatments consisting of Compound 1 of Index Table A (Cmpd 1), daimuron (Cmpd D), quinoclamine (Cmpd Q) and combinations thereof were formulated in acetone. At time of treatment, test pots were flooded to 3 cm above the soil surface, treated by application of test compounds directly to the paddy water, and then maintained at that water depth for the duration of the test. Effects of treatments on rice and weeds were visually evaluated by comparison to untreated controls after 21 days. Plant response ratings are reported on a 0 to 100 scale; where 0 is no effect and 100 is complete control. ND means no data.
(§4) Colby's equation was used to calculate the expected additive herbicidal effect of the mixtures of Compound 1 with daimuron (Cmpd D) and quinoclamine (Cmpd Q). Colby's equation (Colby, S. R “Calculating Synergistic and Antagonistic Responses of Herbicide Combinations,” Weeds, 15(1), pp 20–22 (1967)) calculates the expected additive effect of herbicidal mixtures, and for two active ingredients is of the form: Pa+b=Pa+Pb−(PaPb/100) wherein Pa+b is the percentage effect of the mixture expected from additive contribution of the individual components, • Pa is the observed percentage effect of the first active ingredient at the same use rate as in the mixture, and • Pb is the observed percentage effect of the second active ingredient at the same use rate as in the mixture.

[2] = system: Sphenoclea zeylanica (Sz)
From the text: as §1, §2, §3, §4

[3] = system: Echinochloa oryzicola (Eor)
From the text: as §1, §2, §3, §4

[4] = system: Leptochloa fascicularis (Li)
From the text: as §1, §2, §3, §4

[5] = system: Echinochloa colonum (Ecc)
From the text: as §1, §2, §3, §4

[6] = system: Monochoria vaginalis (Mv)
From the text: as §1, §2, §3, §4

[7] = system: direct-seeded rice seedlings (Oryza saliva cv. 'Japonica—M202'; Oss)
From the text: as §1, §2, §3, §4

[8] = system: Cyperus difformis (Cd)
From the text: as §1, §2, §3, §4

[9] = system: Ammania auriculata (Aa)
From the text: as §1, §2, §3, §4

[10] = system: Echinochloa crus-galli (Ecg)
From the text: as §1, §2, §3, §4

[11] = system: Cyperus iria (Ci)
From the text: as §1, §2, §3, §4

[12] = system: Scirpus mucronatus (Sm)
From the text: as §1, §2, §3, §4

[13] = system: Alisma plantago-aquatica (Ap)
From the text: as §1, §2, §3, §4

[14] = system: Heteranthera limosa (Hl)
From the text: as §1, §2, §3, §4

[15] = system: Echinochloa oryzoides (Eoz)
From the text: as §1, §2, §3, §4

CC(C)(C)c1ccn(C2SCN(c3cccc(C(F)(F)F)c3)C2=O)n1 (centres unmarked) [Compound 1]
100: Obs. (observed effect) Sz ([2]; 32 g/ha alone) | Obs. (observed effect) Sz ([2]; 64 g/ha alone) | Obs. (observed effect) Sz ([2]; 125 g/ha alone) | Obs. (observed effect) Sz ([2]; 250 g/ha alone) | Obs. (observed effect) Sz ([2]; 500 g/ha alone) | Obs. (observed effect) Eor ([3]; 250 g/ha alone) | Obs. (observed effect) Eor ([3]; 500 g/ha alone) | Obs. (observed effect) Lf ([4]; 64 g/ha alone) | Obs. (observed effect) Lf ([4]; 125 g/ha alone) | Obs. (observed effect) Lf ([4]; 250 g/ha alone) | Obs. (observed effect) Lf ([4]; 500 g/ha alone) | Obs. (observed effect) Ecc ([5]; 64 g/ha alone) | Obs. (observed effect) Ecc ([5]; 125 g/ha alone) | Obs. (observed effect) Ecc ([5]; 250 g/ha alone) | Obs. (observed effect) Ecc ([5]; 500 g/ha alone) | Obs. (observed effect) Mv ([6]; 32 g/ha alone) | Obs. (observed effect) Mv ([6]; 64 g/ha alone) | Obs. (observed effect) Mv ([6]; 125 g/ha alone) | Obs. (observed effect) Mv ([6]; 250 g/ha alone) | Obs. (observed effect) Mv ([6]; 500 g/ha alone) | Obs. (observed effect) Oss ([7]; 250 g/ha alone) | Obs. (observed effect) Oss ([7]; 500 g/ha alone) | Obs. (observed effect) Cd ([8]; 32 g/ha alone) | Obs. (observed effect) Cd ([8]; 64 g/ha alone) | Obs. (observed effect) Cd ([8]; 125 g/ha alone) | Obs. (observed effect) Cd ([8]; 250 g/ha alone) | Obs. (observed effect) Cd ([8]; 500 g/ha alone) | Obs. (observed effect) Aa ([9]; 125 g/ha alone) | Obs. (observed effect) Aa ([9]; 250 g/ha alone) | Obs. (observed effect) Aa ([9]; 500 g/ha alone) | Obs. (observed effect) Ecg ([10]; 125 g/ha alone) | Obs. (observed effect) Ecg ([10]; 250 g/ha alone) | Obs. (observed effect) Ecg ([10]; 500 g/ha alone) | Obs. (observed effect) Ci ([11]; 64 g/ha alone) | Obs. (observed effect) Ci ([11]; 125 g/ha alone) | Obs. (observed effect) Ci ([11]; 250 g/ha alone) | Obs. (observed effect) Ci ([11]; 500 g/ha alone) | Obs. (observed effect) Sm ([12]; 64 g/ha alone) | Obs. (observed effect) Sm ([12]; 125 g/ha alone) | Obs. (observed effect) Sm ([12]; 250 g/ha alone) | Obs. (observed effect) Sm ([12]; 500 g/ha alone) | Obs. (observed effect) Ap ([13]; 32 g/ha alone) | Obs. (observed effect) Ap ([13]; 64 g/ha alone) | Obs. (observed effect) Ap ([13]; 125 g/ha alone) | Obs. (observed effect) Ap ([13]; 250 g/ha alone) | Obs. (observed effect) Ap ([13]; 500 g/ha alone) | Obs. (observed effect) Hl ([14]; 250 g/ha alone) | Obs. (observed effect) Hl ([14]; 500 g/ha alone) | Obs. (observed effect) Eoz ([15]; 64 g/ha alone) | Obs. (observed effect) Eoz ([15]; 125 g/ha alone) | Obs. (observed effect) Eoz ([15]; 250 g/ha alone) | Obs. (observed effect) Eoz ([15]; 500 g/ha alone)
95: Obs. (observed effect) Aa ([9]; 64 g/ha alone) | Obs. (observed effect) Ci ([11]; 32 g/ha alone)
60: Obs. (observed effect) Ost ([1]; 500 g/ha alone) | Obs. (observed effect) Sm ([12]; 32 g/ha alone)
70: Obs. (observed effect) Oss ([7]; 125 g/ha alone)
15: Obs. (observed effect) Ost ([1]; 32 g/ha alone)
20: Obs. (observed effect) Ost ([1]; 250 g/ha alone) | Obs. (observed effect) Eoz ([15]; 32 g/ha alone)
85: Obs. (observed effect) Aa ([9]; 32 g/ha alone) | Obs. (observed effect) Ecg ([10]; 64 g/ha alone)
30: Obs. (observed effect) Eor ([3]; 64 g/ha alone)
90: Obs. (observed effect) Lf ([4]; 32 g/ha alone) | Obs. (observed effect) Hl ([14]; 125 g/ha alone)
40: Obs. (observed effect) Eor ([3]; 125 g/ha alone) | Obs. (observed effect) Oss ([7]; 32 g/ha alone) | Obs. (observed effect) Oss ([7]; 64 g/ha alone) | Obs. (observed effect) Hl ([14]; 64 g/ha alone)
0: Obs. (observed effect) Ost ([1]; 64 g/ha alone) | Obs. (observed effect) Ost ([1]; 125 g/ha alone) | Obs. (observed effect) Eor ([3]; 32 g/ha alone) | Obs. (observed effect) Ecc ([5]; 32 g/ha alone) | Obs. (observed effect) Ecg ([10]; 32 g/ha alone)
